# According to patent publication US20180179256A1 (priority 2015, published 2018):
# Test system: HLA-DR
# Type: cell-based, human
sequence,measurement,value
"RGILKRNSSSSSTDS [5-HUMAN-B, reference compound]",% Inhibition by HLA-DR blocking Ab,100%
